Here are results for 26 molecules from patent US7981903B2, “2-[2-{phenylamino}-1H-pyrrolo[2,3-D]pyrimidin-4-yl)amino] benzamide derivatives as IGF-1R inhibitors for the treatment of cancer” (GlaxoSmithKline LLC, priority 2007, dated 2011).

The target in one experiment is T1, human IR (hIR) (Homo sapiens, UniProt P06213).
T1 construct: containing amino acid residues 979-1382 of human IR; made in house; host or cells: Sf9 cells (baculovirus), same process as hIGF1R
The experiment can be described thus: TR-FRET kinase assay of purified hIR. In kind it is biochemical. Particulars: activated hIR 0.5 nM, 10 μM ATP, values given as pIC50 category. In general terms: TR-FRET usually uses a lanthanide donor and a delayed reading to cut background.

The next experiment relates to NCI-H929. In words: Inhibition of cell proliferation (CellTiter-Glo or InCell analyzer), NCI-H929. Particulars: Homo sapiens, 72 h / 3 days, values given as IC50 category. In kind it is cell-based. The procedure, abridged:
In one

T1 sequence (P06213 979-1382): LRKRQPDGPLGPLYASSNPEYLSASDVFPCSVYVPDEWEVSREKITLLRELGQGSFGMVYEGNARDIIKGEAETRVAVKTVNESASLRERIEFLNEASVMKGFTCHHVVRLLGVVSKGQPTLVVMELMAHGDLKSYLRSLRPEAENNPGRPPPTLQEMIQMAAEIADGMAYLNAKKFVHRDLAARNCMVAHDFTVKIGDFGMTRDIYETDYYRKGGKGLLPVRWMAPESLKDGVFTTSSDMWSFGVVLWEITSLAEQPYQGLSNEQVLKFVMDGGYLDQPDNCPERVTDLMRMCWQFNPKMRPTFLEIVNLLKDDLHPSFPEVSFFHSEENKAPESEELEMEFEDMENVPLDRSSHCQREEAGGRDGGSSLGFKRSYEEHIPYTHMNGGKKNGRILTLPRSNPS

Regarding `COc1cc2c(cc1Nc1nc(Nc3cccc(F)c3C(N)=O)c3cc[nH]c3n1)N(C(C)=O)CC2` [Example 134, 2-[(2-{[1-acetyl-5-(methyloxy)-2,3-dihydro-1H-indol-6-yl]amino}-1H-pyrrolo[2,3-d]pyrimidin-4-yl)amino]-6-fluorobenzamide], the IC50 at human IR (hIR) was 1.26 to 3.98 nM; with NCI-H929 it was below 250 nM. Turning to `CCCNC(=O)c1c(F)cc(F)cc1Nc1nc(Nc2cc3c(cc2OC)CCN3C(=O)CN(C)C)nc2[nH]ccc12` [Example 152, 2-[(2-{[1-(N,N-dimethylglycyl)-5-(methyloxy)-2,3-dihydro-1H-indol-6-yl]amino}-1H-pyrrolo[2,3-d]pyrimidin-4-yl)amino]-4,6-difluoro-N-propylbenzamide], the figures for the IC50 against human IR (hIR) and in the experiment on NCI-H929 were 1.26 to 3.98 nM and 250 to 1000 nM, respectively. Regarding `COc1ccc(C(N)=O)c(Nc2nc(Nc3ccc(N4CCOC[C@@H]4C)cc3OC)nc3[nH]ccc23)c1` [Example 39, 2-[(2-{[4-[(3S)-3-methyl-4-morpholinyl]-2-(methyloxy)phenyl]amino}-1H-pyrrolo[2,3-d]pyrimidin-4-yl)amino]-4-(methyloxy)benzamide], the IC50 against human IR (hIR) is 1.26 to 3.98 nM.

As to `COc1cc2c(cc1Nc1nc(Nc3cccc(F)c3C(N)=O)c3cc[nH]c3n1)N(C(=O)CN1CCN(C(C)C)CC1)CC2` [Example 186, 2-fluoro-6-[(2-{[1-{[4-(1-methylethyl)-1-piperazinyl]acetyl}-5-(methyloxy)-2,3-dihydro-1H-indol-6-yl]amino}-1H-pyrrolo[2,3-d]pyrimidin-4-yl)amino]benzamide], the IC50 is 5.01 to 158 nM on human IR (hIR) and 250 to 1000 nM in the experiment with NCI-H929. At human IR (hIR), `CCCN1CCC=C(c2ccc(Nc3nc(Nc4ccc(F)cc4C(N)=O)c4cc[nH]c4n3)c(OC)c2)C1` [Example 54, 5-fluoro-2-[(2-{[2-(methyloxy)-4-(1-propyl-1,2,5,6-tetrahydro-3-pyridinyl)phenyl]amino}-1H-pyrrolo[2,3-d]pyrimidin-4-yl)amino]benzamide] showed an IC50 of 0.251 to 1 nM. Consider `COc1cc2c(cc1Nc1nc(Nc3cccc(F)c3C(N)=O)c3cc[nH]c3n1)N(C(=O)CN1CCC1)CC2` [Example 143, 2-[(2-{[1-(1-azetidinylacetyl)-5-(methyloxy)-2,3-dihydro-1H-indol-6-yl]amino}-1H-pyrrolo[2,3-d]pyrimidin-4-yl)amino]-6-fluorobenzamide], for which the figures for the IC50 at human IR (hIR) and in the experiment with NCI-H929 were 0.251 to 1 nM and below 250 nM, respectively.

With `COc1cc2c(cc1Nc1nc(Nc3cccc(F)c3C(N)=O)c3cc[nH]c3n1)N(CCN(C)C)CC2` [Example 117, 2-[(2-{[1-[2-(dimethylamino)ethyl]-5-(methyloxy)-2,3-dihydro-1H-indol-6-yl]amino}-1H-pyrrolo[2,3-d]pyrimidin-4-yl)amino]-6-fluorobenzamide], the figures for the IC50 against human IR (hIR) and in the experiment on NCI-H929 were 5.01 to 158 nM and 250 to 1000 nM, respectively.

In the case of `COc1cc2c(cc1Nc1nc(Nc3cccc4c3C(=O)NC4)c3cc[nH]c3n1)N(C(=O)CN(C)C)CC2` [Example 200, 7-[(2-{[1-(N,N-dimethylglycyl)-5-(methyloxy)-2,3-dihydro-1H-indol-6-yl]amino}-1H-pyrrolo[2,3-d]pyrimidin-4-yl)amino]-2,3-dihydro-1H-isoindol-1-one], the IC50 on human IR (hIR) was 0.251 to 1 nM; in the experiment with NCI-H929 it was below 250 nM.

Regarding `COc1cc2c(cc1Nc1nc(Nc3cccc(F)c3C(N)=O)c3cc[nH]c3n1)N(C(=O)Cn1ccnc1)CC2` [Example 145, 2-fluoro-6-[(2-{[1-(1H-imidazol-1-ylacetyl)-5-(methyloxy)-2,3-dihydro-1H-indol-6-yl]amino}-1H-pyrrolo[2,3-d]pyrimidin-4-yl)amino]benzamide], the IC50 is 5.01 to 158 nM against human IR (hIR) and above 1000 nM in the experiment on NCI-H929. In the case of `COc1cc2c(cc1Nc1nc(Nc3cccc(F)c3C(N)=O)c3cc[nH]c3n1)N(C(=O)CN(C)OC)CC2` [Example 144, 2-fluoro-6-[(2-{[1-[N-methyl-N-(methyloxy)glycyl]-5-(methyloxy)-2,3-dihydro-1H-indol-6-yl]amino}-1H-pyrrolo[2,3-d]pyrimidin-4-yl)amino]benzamide], the values for the IC50 against human IR (hIR) and in the experiment on NCI-H929 were 5.01 to 158 nM and 250 to 1000 nM, respectively.

As to `CNC(=O)c1c(F)cccc1Nc1nc(Nc2cc(N(C)C(=O)CN(C)C)ccc2OC)nc2[nH]ccc12` [Example 242, 2-[(2-{[5-[(N,N-dimethylglycyl)(methyl)amino]-2-(methyloxy)phenyl]amino}-1H-pyrrolo[2,3-d]pyrimidin-4-yl)amino]-6-fluoro-N-methylbenzamide], the IC50 on human IR (hIR) is 5.01 to 158 nM; in the experiment with NCI-H929 it was above 1000 nM. In the case of `CNC(=O)c1cc2ccccc2cc1Nc1nc(Nc2cc3c(cc2OC)CCN3C(=O)CN(C)C)nc2[nH]ccc12` [Example 125, 3-[(2-{[1-(N,N-dimethylglycyl)-5-(methyloxy)-2,3-dihydro-1H-indol-6-yl]amino}-1H-pyrrolo[2,3-d]pyrimidin-4-yl)amino]-N-methyl-2-naphthalenecarboxamide], the IC50 was 0.251 to 1 nM at human IR (hIR) and below 250 nM in the experiment with NCI-H929. As to `COc1cc2c(cc1Nc1nc(Nc3cccc(F)c3C(N)=O)c3cc[nH]c3n1)N(C(=O)CN1CCOCC1)CC2` [Example 185, 2-fluoro-6-[(2-{[5-(methyloxy)-1-(4-morpholinylacetyl)-2,3-dihydro-1H-indol-6-yl]amino}-1H-pyrrolo[2,3-d]pyrimidin-4-yl)amino]benzamide], the results for the IC50 on human IR (hIR) and in the experiment with NCI-H929 were 5.01 to 158 nM and below 250 nM, respectively.

With `COc1cc2c(cc1Nc1nc(Nc3cccc(F)c3C(N)=O)c3cc[nH]c3n1)N(C(=O)CCN1CCOCC1)CC2` [Example 187, 2-fluoro-6-{[2-({5-(methyloxy)-1-[3-(4-morpholinyl)propanoyl]-2,3-dihydro-1H-indol-6-yl}amino)-1H-pyrrolo[2,3-d]pyrimidin-4-yl]amino}benzamide], the IC50 is 5.01 to 158 nM against human IR (hIR) and below 250 nM in the experiment with NCI-H929. Take `COc1cc2c(cc1Nc1nc(Nc3cc4ccccc4cc3C(N)=O)c3cc[nH]c3n1)N(C(=O)CN(C)C)CC2` [Example 124, 3-[(2-{[1-(N,N-dimethylglycyl)-5-(methyloxy)-2,3-dihydro-1H-indol-6-yl]amino}-1H-pyrrolo[2,3-d]pyrimidin-4-yl)amino]-2-naphthalenecarboxamide]: the values for the IC50 against human IR (hIR) and with NCI-H929 were 0.251 to 1 nM and below 250 nM, respectively. As to `COc1ccc(OC[C@@H](O)CN2CCCC2)cc1Nc1nc(Nc2cc(F)c(F)cc2C(N)=O)c2cc[nH]c2n1` [Example 107, 4,5-difluoro-2-[(2-{[5-{[(2S)-2-hydroxy-3-(1-pyrrolidinyl)propyl]oxy}-2-(methyloxy)phenyl]amino}-1H-pyrrolo[2,3-d]pyrimidin-4-yl)amino]benzamide], the IC50 against human IR (hIR) is 0.251 to 1 nM. Molecule `CNC(=O)c1c(F)cccc1Nc1nc(Nc2cc3c(cc2OC)CCC(=O)N3)nc2[nH]ccc12` [Example 222, 2-fluoro-N-methyl-6-[(2-{[6-(methyloxy)-2-oxo-1,2,3,4-tetrahydro-7-quinolinyl]amino}-1H-pyrrolo[2,3-d]pyrimidin-4-yl)amino]benzamide] yielded a half-inhibitory concentration (IC50) in the experiment on NCI-H929 of 250 to 1000 nM.

In the case of `COc1cc2c(cc1Nc1nc(Nc3cc(F)cc(F)c3C(N)=O)c3cc[nH]c3n1)NCCC2` [Example 220, 2,4-difluoro-6-[(2-{[6-(methyloxy)-1,2,3,4-tetrahydro-7-quinolinyl]amino}-1H-pyrrolo[2,3-d]pyrimidin-4-yl)amino]benzamide], the IC50 with NCI-H929 was above 1000 nM. On to `COc1cc(N2CCC(N3CCOCC3)CC2)ccc1Nc1nc(Nc2cc(F)ccc2C(N)=O)c2cc[nH]c2n1` [Example 78, 4-fluoro-2-{[2-({2-(methyloxy)-4-[4-(4-morpholinyl)-1-piperidinyl]phenyl}amino)-1H-pyrrolo[2,3-d]pyrimidin-4-yl]amino}benzamide], for which the IC50 on human IR (hIR) was 1.26 to 3.98 nM. On human IR (hIR), `COc1ccc(OC[C@@H](O)CN(C)C)cc1Nc1nc(Nc2cc(F)ccc2C(N)=O)c2cc[nH]c2n1` [Example 86, 2-[(2-{[5-{[(2S)-3-(dimethylamino)-2-hydroxypropyl]oxy}-2-(methyloxy)phenyl]amino}-1H-pyrrolo[2,3-d]pyrimidin-4-yl)amino]-4-fluorobenzamide] had an IC50 of 0.251 to 1 nM. Same read-out and setting: then `COc1cc(N2CCOC[C@@H]2C)ccc1Nc1nc(Nc2cc(F)ccc2C(N)=O)c2cc[nH]c2n1` [Example 84, 4-fluoro-2-[(2-{[4-[(3S)-3-methyl-4-morpholinyl]-2-(methyloxy)phenyl]amino}-1H-pyrrolo[2,3-d]pyrimidin-4-yl)amino]benzamide], with 0.251 to 1 nM; and `CN(C)CC(=O)Nc1ccc(F)c(Nc2nc(Nc3ccccc3C(N)=O)c3cc[nH]c3n2)c1` [Example 17, 2-{[2-({5-[(N,N-dimethylglycyl)amino]-2-fluorophenyl}amino)-1H-pyrrolo[2,3-d]pyrimidin-4-yl]amino}benzamide], with 0.251 to 1 nM.

In turn, `CN(C)CC(=O)Nc1ccc(OC(F)(F)F)c(Nc2nc(Nc3ccccc3C(N)=O)c3cc[nH]c3n2)c1` [Example 16, 2-{[2-({5-[(N,N-dimethylglycyl)amino]-2-[(trifluoromethyl)oxy]phenyl}amino)-1H-pyrrolo[2,3-d]pyrimidin-4-yl]amino}benzamide] gave an IC50 on human IR (hIR) of 0.251 to 1 nM. On human IR (hIR), `CCCN1CCCC(c2ccc(Nc3nc(Nc4ccccc4C(N)=O)c4cc[nH]c4n3)c(OC)c2)C1` (stereo not drawn) [Example 3, 2-[(2-{[2-(methyloxy)-4-(1-propyl-3-piperidinyl)phenyl]amino}-1H-pyrrolo[2,3-d]pyrimidin-4-yl)amino]benzamide] gave an IC50 of 0.251 to 1 nM.

As to `COc1ccc(NC(=O)CN(C)C)cc1Nc1nc(Nc2ccccc2C(N)=O)c2cc[nH]c2n1` [Example 15, 2-[(2-{[5-[(N,N-dimethylglycyl)amino]-2-(methyloxy)phenyl]amino}-1H-pyrrolo[2,3-d]pyrimidin-4-yl)amino]benzamide], the IC50 at human IR (hIR) is 0.251 to 1 nM. As for `COc1cc2c(cc1Nc1nc(Nc3cccc(F)c3C(N)=O)c3cc[nH]c3n1)N(C(=O)CN(C)C)CC2` [Example 53, 2-[(2-{[1-(N,N-dimethylglycyl)-5-(methyloxy)-2,3-dihydro-1H-indol-6-yl]amino}-1H-pyrrolo[2,3-d]pyrimidin-4-yl)amino]-6-fluorobenzamide], in the experiment on NCI-H929, the IC50 was below 250 nM.

The IC50 is the point on the concentration scale where inhibition reaches its midpoint. High values mean weaker potency, low ones greater potency.
